From US8846694B2, “Pyrrolidone derivatives for use as MetAP-2 inhibitors” (Merck Patent GmbH, priority 2008, dated 2014)
Structures can show the parent of a compound that is named as a salt.

Biological target: MetAP-2 (Homo sapiens, UniProt P50579)
Assay: MetAP-2 activity measurement (coupled enzymatic reactions, substrate Met-Arg-Ser, photometric at 450 nm)
Type: biochemical
Conditions: read-out: IC50 enzyme (Inhibition of MetAP-2)
Protocol: MetAP-2 Activity Measurement
The MetAP-2 activity is determined by coupling enzymatic reactions. The tripeptide Met-Arg-Ser (MAS) is employed as substrate. The methionine liberated is firstly converted into Metox and H2O2 by L-aminooxidase (AAO). In the second step, the peroxidase (POD) with the aid of the H2O2 catalyses the oxidation of the leukodye dianisidine to dianisidineox, the increase of which is detected photometrically at 450 nm.
MetAP-2 activity can be recorded continuously as kinetics. The reaction scheme illustrates that one mol of dianisidineox is formed per mol of methionene. The MetAP-2 enzyme activity can therefore be calculated directly as Δ absorption per time unit. […] of the MetAP-2 activity (mol of Met/time unit) is possible with the aid of the dianisidineox extinction coefficient.
The change in extinction per time unit is depicted graphically and a slope calculation is carried out in the visually linear region of the reaction.

Sequence of MetAP-2 (P50579 whole entry, species assumed): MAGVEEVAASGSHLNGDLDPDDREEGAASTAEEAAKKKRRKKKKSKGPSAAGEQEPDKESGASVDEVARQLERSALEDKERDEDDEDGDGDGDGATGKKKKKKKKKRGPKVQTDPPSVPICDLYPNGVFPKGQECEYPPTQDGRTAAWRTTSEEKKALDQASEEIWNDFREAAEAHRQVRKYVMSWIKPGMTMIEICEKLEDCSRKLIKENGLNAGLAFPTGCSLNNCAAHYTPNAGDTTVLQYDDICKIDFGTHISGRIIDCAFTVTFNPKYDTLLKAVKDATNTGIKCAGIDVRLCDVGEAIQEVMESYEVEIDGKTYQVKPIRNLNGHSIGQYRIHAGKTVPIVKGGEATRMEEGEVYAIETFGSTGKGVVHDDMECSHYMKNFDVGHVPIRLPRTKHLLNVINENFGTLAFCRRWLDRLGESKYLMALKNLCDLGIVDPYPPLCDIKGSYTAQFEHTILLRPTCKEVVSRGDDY

SMILES | IC50 [nM]
CCCN1CCN(Cc2ccc(OC[C@H]3CCCN3c3ncnc4[nH]cnc34)c3ccccc23)CC1 [A110, 6-{(R)-2-[4-(4-Propylpiperazin-1-ylmethyl)-naphthalen-1-yloxymethyl]pyrrolidin-1-yl}-9H-purine] | 10 to 1000
OC1CCN(C2CCc3cccc(OC[C@H]4CCCN4c4ncnc5[nH]cnc45)c3C2)C1 (stereo partly drawn) [A169, 1-{8-[(R)-1-(9H-Purin-6-yl)pyrrolidin-2-yl-methoxy]-1,2,3,4-tetrahydronaphthalen-2-yl}pyrrolidin-3-ol] | 1000 to 10000
Nn1ccc2c(N3CCC[C@@H]3COc3ccccc3F)ncnc21 [A24, 4-[(R)-2-(2-Fluorophenoxymethyl)pyrrolidin-1-yl]pyrrolo[2,3-d]pyrimidin-7-ylamine] | > 10000
O=C(NCCN1CCOCC1)c1cccc(-c2ncc(OC[C@H]3CCCN3c3ncnc4[nH]cnc34)cn2)c1 [A66, N-(2-Morpholin-4-ylethyl)-3-{5-[(R)-1-(9H-purin-6-yl)pyrrolidin-2-ylmethoxy]pyrimidin-2-yl}-benzamide] | 10 to 1000
c1ccc2c(OC[C@H]3CCCN3c3ncnc4[nH]cnc34)ccc(CN3CCOCC3)c2c1 [A3, 6-[(R)-2-(4-morpholin-4-ylmethylnaphthalen-1-yloxymethyl)pyrrolidin-1-yl]-9H-purine] | 10 to 1000
Clc1ccccc1OC[C@H]1CCCN1c1ncnc2ncccc12 [A22] | > 10000
Cc1ccc2nc(C(F)(F)F)cc(OC[C@H]3CCCN3c3ncnc4[nH]cnc34)c2c1 [A117, 6-Methyl-4-[(R)-1-(9H-purin-6-yl)pyrrolidin-2-yl-methoxy]-2-trifluoromethylquinoline] | 10 to 1000
COc1ccc(CCOc2cc3c(OC[C@H]4CCCN4c4ncnc5[nH]cnc45)ccc(CCc4ccc(OC)cc4)c3cc2C(=O)N(C)C)cc1 [A152, N,N-Dimethyl-3-[2-(4-methoxyphenyl)ethoxy]-8-[2-(4-methoxyphenyl)ethyl]-5-[(R)-1-(9H-purin-6-yl)pyrrolidin-2-ylmethoxy]naphthalene-2-carboxamide] | > 10000
O=C(CC1CCc2c(OC[C@H]3CCCN3c3ncnc4[nH]cnc34)cccc2C1=O)NCCO (stereo partly drawn) [A180, N-(2-Hydroxyethyl)-2-{1-oxo-5-[(R)-1-(9H-purin-6-yl)pyrrolidin-2-ylmethoxy]-1,2,3,4-tetrahydro-naphthalen-2-yl}acetamide] | 10 to 1000
c1ccc2c(NCCCN3CCOCC3)ncc(OC[C@H]3CCCN3c3ncnc4[nH]cnc34)c2c1 [A178, (3-Morpholin-4-ylpropyl)-{4-[(R)-1-(9H-purin-6-yl)pyrrolidin-2-ylmethoxy]isoquinolin-1-yl}amine] | 1000 to 10000
O=C1CC[C@@H](C(=O)N2CCc3cccc(OC[C@H]4CCCN4c4ncnc5[nH]cnc45)c3C2)N1 [A192, (S)-5-{8-[(R)-1-(9H-Purin-6-yl)pyrrolidin-2-yl-methoxy]-3,4-dihydro-1H-isoquinoline-2-carbonyl}pyrrolidin-2-one] | 10 to 1000
O=CN(CCN1CCOCC1)Cc1ccc(OC[C@H]2CCCN2c2ncnc3[nH]cnc23)c2ccccc12 [A94, N-(2-Morpholin-4-ylethyl)-N-{4-[(R)-1-(9H-purin-6-yl)pyrrolidin-2-ylmethoxy]naphthalen-1-yl-methyl}formamide] | 10 to 1000
CC(O)CNC(=O)c1cc(OC[C@H]2CCCN2c2ncnc3[nH]cnc23)c2ccccc2n1 (stereo partly drawn) [A68, N-(2-Hydroxypropyl)-4-[(R)-1-(9H-purin-6-yl)-pyrrolidin-2-ylmethoxy]quinoline-2-carboxamide hydrochloride] | 10 to 1000
NCCCC[C@H](NC(=O)OCc1ccccc1)C(=O)N1CCc2cccc(OC[C@H]3CCCN3c3ncnc4[nH]cnc34)c2C1 [A199, Benzyl ((S)-5-amino-1-{8-[(R)-1-(9H-purin-6-yl)-pyrrolidin-2-ylmethoxy]-3,4-dihydro-1H-isoquinolin-2-carbonyl}pentyl)carbamate] | 1000 to 10000
c1ccc2c(OC[C@H]3CCCN3c3ncnc4ncccc34)cccc2c1 [A23, 4-[(R)-2-(Naphthalen-1-yloxymethyl)pyrrolidin-1-yl]pyrido[2,3-d]pyrimidine] | > 10000
CCOC(=O)CCCCn1cnc2c(N3CCC[C@@H]3COc3cccc4ccc(O)cc34)ncnc21 [A136, Ethyl 5-{6-[(R)-2-(7-hydroxynaphthalen-1-yl-oxymethyl)pyrrolidin-1-yl]purin-9-yl}pentanoate] | > 10000
OC1CN(C2CCc3cccc(OC[C@H]4CCCN4c4ncnc5[nH]cnc45)c3C2)C1 (stereo partly drawn) [A170, 1-{8-[(R)-1-(9H-Purin-6-yl)pyrrolidin-2-yl-methoxy]-1,2,3,4-tetrahydronaphthalen-2-yl}azetidin-3-ol] | 10 to 1000

Now from value to molecule:

IC50 [nM] | SMILES
1000 to 10000 | NCCOCCOCCNCc1ccc(OC[C@H]2CCCN2c2ncnc3[nH]cnc23)c2ccccc12 [A47, 2-{2-[2-({4-[(R)-1-(9H-Purin-6-yl)pyrrolidin-2-yl-methoxy]naphthalen-1-ylmethyl}-amino)ethoxy]ethoxy}ethylamine]
10 to 1000 | O=C(NCCCO)c1cc(OC[C@H]2CCCN2c2ncnc3[nH]cnc23)c2ccccc2n1 [A85, N-(3-Hydroxypropyl)-4-[(R)-1-(9H-purin-6-yl)-pyrrolidin-2-ylmethoxy]quinoline-2-carboxamide]
10 to 1000 | Nc1ccc2cccc(OC[C@H]3CCCN3c3ncnc4[nH]cnc34)c2c1 [A144, 8-[(R)-1-(9H-Purin-6-yl)pyrrolidin-2-yl-methoxy]naphthalen-2-ylamine]
10 to 1000 | Cc1cc2c(OC[C@H]3CCCN3c3ncnc4[nH]cnc34)cccc2cn1 [A89, 3-Methyl-5-[(R)-1-(9H-purin-6-yl)pyrrolidin-2-yl-methoxy]isoquinoline]
10 to 1000 | O=C1c2cccc(OC[C@H]3CCCN3c3ncnc4[nH]cnc34)c2CC[C@@H]1Cc1c[nH]cn1 [A96, (R)-2-(1H-Imidazol-4-ylmethyl)-5-[(R)-1-(9H-purin-6-yl)pyrrolidin-ylmethoxy]-3,4-dihydro-2H-naphthalen-1-one]
> 10000 | O=C(O)CNC(=O)N1CCN(c2ccc3cccc(OC[C@H]4CCCN4c4ncnc5[nH]cnc45)c3c2)CC1 [A158, [(4-{8-[(R)-1-(9H-Purin-6-yl)pyrrolidin-2-yl-methoxy]naphthalen-2-yl}piperazine-1-carbonyl)amino]acetic acid]
1000 to 10000 | O=C(NCc1ccco1)N1CCN(c2ccc3cccc(OC[C@H]4CCCN4c4ncnc5[nH]cnc45)c3c2)CC1 [A156, N-(Furan-2-ylmethyl)-4-{8-[(R)-1-(9H-purin-6-yl)-pyrrolidin-2-ylmethoxy]naphthalen-2-yl}-piperazine-1-carboxamide]
10 to 1000 | O=C(NCCCN1CCOCC1)c1cc(OC[C@H]2CCCN2c2ncnc3[nH]cnc23)c2ccccc2n1 [A150, N-(3-Morpholin-4-ylpropyl)-4-[(R)-1-(9H-purin-6-yl)pyrrolidin-2-ylmethoxy]quinoline-2-carboxamide]
1000 to 10000 | CC(C)(C)OC(=O)N[C@@H](Cc1c[nH]cn1)C(=O)N1CCc2cccc(OC[C@H]3CCCN3c3ncnc4[nH]cnc34)c2C1 [A189, tert-Butyl ((S)-1-(1H-imidazol-4-ylmethyl)-2-oxo-2-{8-[(R)-1-(9H-purin-6-yl)pyrrolidin-2-yl-methoxy]-3,4-dihydro-1H-isoquinolin-2-yl}ethyl)-carbamate]
> 10000 | O=C(O)/C=C/c1ccccc1OC[C@H]1CCCN1c1ncnc2[nH]cnc12 [A76, (E)-3-{2-[(R)-1-(9H-Purin-6-yl)pyrrolidin-2-yl-methoxy]phenyl}acrylic acid]
> 10000 | COC(=O)CC[C@H](NC(=O)OCc1ccccc1)C(=O)Nc1ccc2cccc(OC[C@H]3CCCN3c3ncnc4[nH]cnc34)c2c1 [A160, Methyl (S)-4-benzyloxycarbonylamino-4-{8-[(R)-1-(9H-purin-6-yl)pyrrolidin-2-ylmethoxy]-naphthalen-2-ylcarbamoyl}butyrate]
1000 to 10000 | N[C@@H](Cc1c[nH]cn1)C(=O)Nc1ccc2cccc(OC[C@H]3CCCN3c3ncnc4[nH]cnc34)c2c1 [A164, (S)-2-Amino-3-(1H-imidazol-4-yl)-N-{8-[(R)-1-(9H-purin-6-yl)pyrrolidin-2-ylmethoxy]-naphthalen-2-yl}propionamide * HCl]
> 10000 | O=S(=O)(O)c1ccc2cccc(NC[C@H]3CCCN3c3ncnc4[nH]cnc34)c2c1 [A132, 8-{[(R)-1-(9H-Purin-6-yl)pyrrolidin-2-yimethyl]-amino}naphthalene-2-sulfonic acid]
1000 to 10000 | O=C1OCCC1CCOc1ccc2cccc(OC[C@H]3CCCN3c3ncnc4[nH]cnc34)c2c1 (stereo partly drawn) [A186, 3-(2-{8-[(R)-1-(9H-Purin-6-yl)pyrrolidin-2-yl-methoxy]naphthalen-2-yloxy}ethyl)dihydrofuran-2-one]
1000 to 10000 | O=C(NCc1ccco1)Nc1ccc2cccc(OC[C@H]3CCCN3c3ncnc4[nH]cnc34)c2c1 [A159, 1-Furan-2-ylmethyl-3-{8-[(R)-1-(9H-purin-6-yl)-pyrrolidin-2-ylmethoxy]naphthalen-2-yl}urea]
10 to 1000 | NC(=O)C[C@@H](N)C(=O)N1CCc2cccc(OC[C@H]3CCCN3c3ncnc4[nH]cnc34)c2C1 [A194, (R)-3-Amino-4-oxo-4-{8-[(R)-1-(9H-purin-6-yl)-pyrrolidin-2-ylmethoxy]-3,4-dihydro-1H-isoquinolin-2-yl}butyramide]
1000 to 10000 | c1ccc(-c2cccc(OC[C@H]3CCCN3c3ncnc4[nH]cnc34)c2)cc1 [A63, 6-[(R)-2-(Biphenyl-3-yloxymethyl)pyrrolidin-1-yl]-9H-purine]
10 to 1000 | COC(=O)c1cccc(-c2ncc(OC[C@H]3CCCN3c3ncnc4[nH]cnc34)cn2)c1 [A65, Methyl 3-{5-[(R)-1-(9H-purin-6-yl)pyrrolidin-2-yl-methoxy]pyrimidin-2-yl}benzoate]
